Test results: patent US8431522B2, “Methods of inhibiting tumor cell proliferation” (The Board of Trustees of the University of Illinois, priority 2003, dated 2013)
Entries after “also recorded” stand apart in the source; their conditions may differ. Non-standard residues stand in square brackets, D forms with d. No end group written: not given here.

What was measured:
[1] = system: GFP-FoxM1B fusion protein; experiment: Localization of GFP-FoxM1B fusion protein in transfected U2OS cells (fluorescence); assay type: cell-based, human; conditions: for targeting of GFP-FoxM1B protein to the nucleolus: cotransfection of expression vector
Excerpt: FIGS. 7A-H show nuclear localization of GFP-FoxM1B fusion protein following treatment with either pharmacological kinase inhibitors or dominant negative kinases. U20S cells were transiently transfected with CMV GFP-FoxM1B with the indicated pharmacological kinase inhibitors (B-D) or dominant-negative kinase expression vectors (E-H). Cells in panel (A) were untreated.
U2OS cells were transiently transfected in 2 well chamber slides (Nunc) with CMV GFP-FoxM1B expression constructs in the presence or absence of either CMV WT T7-p19^ARF, CMV HA-p19^ARF, or CMV expression constructs containing either N-terminal mutant T7-p19^ARF proteins (Δ1-14, Δ15-25, or Δ26-37) or V5-TAT-p19^ARF proteins (26-44; SEQ ID NO: 11, or 26-55; SEQ ID NO: 12). U2OS cells were transiently transfected with CMV EGFP expression vector containing the TAT-p19^ARF proteins (26-44; SEQ ID NO: 11, or 26-55; SEQ ID NO: 12). Forty-eight hours post transfection, cells were fixed in 4% Para-formaldehyde for 20 minutes at room temperature. GFP fluorescence or immuno-fluorescence with anti-HA antibody following TRITC conjugated secondary antibody was detected using a Zeiss microscope. U2OS cells were treated with 12 μM of the arrrarrKFVRSRRPRTASCALAFVN (SEQ ID NO: 10) peptide for 24 hours and then analyzed for TRITC fluorescence as described above.

[2] = system: FoxM1B transcriptional activity; experiment: FoxM1B transcription assay with 6X FoxM1B TATA-luciferase reporter in transfected U2OS cells; assay type: cell-based, human
Description: U20S TetR cells were transiently co-transfected with the reporter 6X-FoxM1B-TATA-Luciferase and CMV-TO-FoxM1B (500 ng) alone or with increasing amounts of either CMV-DN-Cdk1, Cdk1 pharmacological inhibitor Alsterpaullone or CMV-Myt1. Results are expressed as the percent activity with respect to wild-type FoxM1B using four separate transfection experiments were performed in triplicate to calculate ±SD.
U20S TetR cells were transiently co-transfected with the reporter 6X-FoxM1B-TATA-Luciferase and CMV-TO-FoxM1B (500 ng) with CMV-DN-p90Rsk, CMV-DN-Ras or DN-AKT or with 50 μM of either U0126 or Ly294002 alone or together or with 25 μM of Akt inhibitor. Four separate transfection experiments were performed in triplicate to calculate ±SD.
A 6X FoxM1B/FoxA TATA-Luciferase utilized 6 copies of the FoxM1B/FoxA binding site (TTTGTTTGTTTG; SEQ ID NO: 6) from the cdx-2 promoter region driving expression of the CMV-TATA box luciferase reporter gene as described previously (Rausa et al., 2003, Mol. Cell. Biol. 23:437-449; Samadani et al., 1996, Mol. Cell. Biol. 16:6273-6284; Ye et al., 1997, Mol. Cell Biol. 17:1626-1641).
Inhibiting Cdk1 activity with either dominant negative (DN) Cdk1 or a pharmacologically active concentration of Alsterpaullone (1 μM) caused an 80% to 90% reduction in FoxM1B transcriptional activity (FIG. 6C). […] Consistent with these findings, stimulation of Cdk1 activity by co-transfection of either CMV Cdc25B or Cdc25C phosphatases enhanced FoxM1B transcriptional activity by 3.4-fold and 1.7-fold, respectfully (FIGS. 6B and 6D). […]
Human osteosarcoma U2OS cells were maintained in DMEM supplemented with 10% fetal calf serum, 1× Pen/Strep and 1× L-Glutamine (Gibco). […] Luciferase activity was determined as percent of wild type FoxM1B activity following normalization to Renilla activity. Experiments were performed at least four times in triplicate and mean±SD determined. […]

FoxM1B protein = molecular target: T1, FoxM1B protein (Homo sapiens, UniProt Q08050); experiment: Co-immunoprecipitation of V5-tagged p19ARF sequences with GFP-FoxM1B from transfected U2OS extracts; assay type: binding; conditions: V5 antibody IP, GFP Western blot
T1 construct: expressed in transfected cells; host or cells: U2OS (human osteosarcoma) cells, transient transfection
T1 sequence (Q08050 1-748 isoform Q08050-2): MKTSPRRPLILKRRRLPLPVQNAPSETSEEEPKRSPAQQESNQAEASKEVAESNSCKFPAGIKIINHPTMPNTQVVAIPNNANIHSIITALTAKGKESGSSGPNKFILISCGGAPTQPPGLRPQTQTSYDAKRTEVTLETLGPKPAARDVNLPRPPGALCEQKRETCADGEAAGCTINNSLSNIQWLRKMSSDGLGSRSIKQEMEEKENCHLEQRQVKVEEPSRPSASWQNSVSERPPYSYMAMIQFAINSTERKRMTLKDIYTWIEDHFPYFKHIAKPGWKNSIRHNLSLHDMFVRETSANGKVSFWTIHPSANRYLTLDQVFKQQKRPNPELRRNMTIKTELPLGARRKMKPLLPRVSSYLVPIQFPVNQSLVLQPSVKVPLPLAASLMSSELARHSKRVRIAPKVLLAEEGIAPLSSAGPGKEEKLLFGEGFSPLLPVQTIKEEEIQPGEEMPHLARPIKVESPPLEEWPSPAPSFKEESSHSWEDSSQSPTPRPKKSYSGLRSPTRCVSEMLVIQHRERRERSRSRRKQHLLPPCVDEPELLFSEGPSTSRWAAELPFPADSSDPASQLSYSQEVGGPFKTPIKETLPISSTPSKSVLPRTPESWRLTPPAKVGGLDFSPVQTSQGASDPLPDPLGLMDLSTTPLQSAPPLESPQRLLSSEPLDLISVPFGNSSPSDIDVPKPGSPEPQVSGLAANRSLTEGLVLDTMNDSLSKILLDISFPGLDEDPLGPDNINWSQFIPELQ
Description: The p19 protein was immunoprecipitated from transfected protein extracts with V5 epitope antibody followed by Western blot analysis with GFP monoclonal antibody.
To identify p19 protein sequences that are sufficient for association with FoxM1B protein, Co-IP assays were performed with protein extracts prepared from U2OS cells that were transiently transfected with CMV GFP-FoxM1B expression plasmid and the CMV expression vector containing the V5 epitope tagged p19^ARF 26-44 or p19^ARF 26-55 sequences. At the amino terminus of either the p19^ARF sequences 26 to 44 or 26 to 55, we placed the protein transduction/nuclear localization domain ([…]; SEQ ID NO: 13) from the HIV-TAT protein (Becker-Hapak et al., 2001, Methods 24:247-256). Protein extracts were incubated with the V5 epitope tag antibody to IP the p19 protein followed by Western blot analysis with GFP monoclonal antibody to detect the GFP-FoxM1B fusion protein.

U2OS cells = experiment: Cellular uptake and localization of TRITC-tagged peptide in U2OS cells; assay type: cell-based, human; conditions: 12 μM, three days
U2OS clone C3 cells = experiment: Soft agar colony formation, Doxycycline induced CMV-TETO GFP-FoxM1B U2OS clone C3 cells; assay type: cell-based, human; conditions: 12 μM peptide, 1 μg/ml Doxycycline, two weeks
Description: (§1) The T-REx™-U2OS cells were purchased from Invitrogen Life Technologies (Catalog No. R712-07). The T-REx™-U2OS cells express the Tet repressor from pCEP4/tetR that was episomally maintained in tissue culture medium containing 10% fetal calf serum and drug selection with 50 μg/ml of Hygromycin B. Tetracycline regulation in the T-REx System was based on the binding of tetracycline to the TET repressor and de-repressing of the CMV-TETO promoter controlling expression of the gene of interest (Yao et al., 1998, Hum Gene Ther 9:1939-1950). […] U2OS cell colonies that were larger than 1 mm in size were scored after two weeks of growth on the soft agar.
In addition, the tetracycline (TET) regulated T-REx™ System described above was used to conditionally express the GFP-FoxM1B protein in U2OS cells to determine whether conditional overexpression of FoxM1B protein could enhance anchorage-independent growth of U2OS cells. […] The U2OS clone C3 cell line was selected to examine whether doxycycline induced FoxM1B-GFP expression enhanced anchorage-independent growth as assessed by propagation for two weeks on soft agar (Conzen et al., 2000, Mol Cell Biol 20:6008-6018).

parental U2OS cells = experiment: Soft agar colony formation, parental (wild type) U2OS cells; assay type: cell-based, human; conditions: 12 μM peptide, two weeks
Description: as §1, with “9:1939-1950). The pCDNA4-TO GFP-FoxM1B expression plasmid provided in the T-REx™ system was generated as described previously (Major et al., 2004, Mol. Cell. Biol. 24:2649-2661) and transfected T-REx™-U2OS cells with linearized pCDNA4-TO GFP-Foxm1b expression plasmid to select clonal Doxycycline inducible GFP-Foxm1b U2OS cell lines. CMV-TETO GFP-FoxM1B U2OS clones were isolated by selection for three weeks with tissue culture medium containing 50 μg/ml of Hygromycin B and 250 μg/ml of Zeocin. […] Wild type U2OS cells or CMV-TETO GFP-Foxm1b U2OS clone C3 cells were grown in medium with or without 1 μg/ml of Doxycycline for 2 days prior to either adding the (D-Arg)9-p19^ARF 26-44 peptide or left untreated.” for “9:1939-1950).”

[3] = cotransfection of CMV expression vector, U2OS cells

## O=C1Cc2c([nH]c3ccc([N+](=O)[O-])cc23)-c2ccccc2N1 [Alsterpaullone, reference compound]
[1]; Alsterpaullone 1 μM
  nuclear localization of transfected CMV GFP-FoxM1B protein: Neither DN-Cdk1 nor Alsterpaullone (1 μM) altered nuclear localization

## KFVRSRRPRTASCALAFVN (Mus Musculus) [V5-TAT-p19^ARF 26-44]
[2]; [3]
  FoxM1B transcriptional activity: able to significantly decrease FoxM1B transcriptional activity
[1]
  targeting of GFP-FoxM1B protein to the nucleolus: targeted to the nucleolus
FoxM1B protein
  association with FoxM1B protein (Co-IP): sufficient to associate with the FoxM1B protein

## KFVRSRRPRTASCALAFVNMLLRLERILRR (listed as Mus musculus) [V5-TAT-p19^ARF 26-55]
[2]; [3]
  FoxM1B transcriptional activity: able to significantly decrease FoxM1B transcriptional activity
[1]
  targeting of GFP-FoxM1B protein to the nucleolus: targeted to the nucleolus

## rrrrrrrrrKFVRSRRPRTASCALAFVN ([dR][dR][dR][dR][dR][dR][dR][dR][dR]KFVRSRRPRTASCALAFVN; listed as Mus musculus) [(D-Arg)9-p19^ARF 26-44 peptide, p19ARF 26-44 peptide containing nine D-Arg residues at the N-terminus]
[2]; 12 μM peptide, 24 hours, transfected U2OS cells
  FoxM1B transcriptional activity: significant reduction in FoxM1B transcriptional activity; also recorded: effective inhibitor of FoxM1B transcriptional activity
U2OS cells
  transduction into cells and localization of peptide fluorescence: efficiently transduced into all of the cells and that its fluorescence localized to the nucleolus; also recorded: transduced into the cell and was localized to the nucleolus
U2OS clone C3 cells
  FoxM1B induced colony formation on soft agar: significantly diminished the ability of induced GFP-FoxM1B to stimulate colony formation
Parental U2OS cells
  colony formation on soft agar: significantly diminished the ability of the parental U2OS cells to form colonies on soft agar; also recorded: significantly inhibited colony formation of U2OS cells on soft agar
